Assay results: patent publication US11155612B2, “vNAR antibody which binds VEGF for use in dogs or cats” (CENTRO DE INVESTIGACIÓN CIENTÍFICA Y DE EDUCACIÓN SUPERIOR …, priority 2017, dated 2021)

Test system: human umbilical vein endothelial cells (HUVEC) expressing GFP and normal human dermal fibroblasts (NHDF)
Assay: Angiogenesis assay (vascular tube formation, HUVEC/NHDF co-culture)
Format: cell-based
Details: VEGF 4 ng/ml; 100 μM suramin positive control
Procedure: In the vascular tube formation assay, a co-culture system of human umbilical vein endothelial cells (HUVEC) expressing GFP and normal human dermal fibroblasts (NHDF) was used. For cell seeding on day 0, one cryogenic vial of NHDF cells was thawed and resuspended in 12 ml of complete seeding medium. Then, 100 μl of this solution was added per well of a 96-well plate. The cells were incubated at room temperature for 1 hour. Then, 1 cryogenic vial of HUVECs was thawed and resuspended in 12 ml of complete seeding medium. HUVEC (100 μL per well) were seeded into the same plate as NHDFs. The cells were incubated at room temperature for another hour. The plate was then examined in an IncuCyte ZOOM and scanned using the “FOIL” scan type. After 24 hours, the culture medium was replaced with 150 μl of growth medium.
Forty-eight hours after seeding, the cells were treated with VEGF at 4 ng/ml and the test compounds at eight concentrations.
Serial dilutions of the compounds were prepared using assay media containing VEGF up to the final concentrations in FIG. 3. Then, 150 μl of medium containing the vNARs were added. In untreated wells, media without VEGF were added. For wells without compound, media with VEGF was added. […]
The formation of vessel tubes by fluorescently-labeled HUVECs was measured using live-cell imaging, and the effects of the vNARs on this process were assessed.

Cc1ccc(C(=O)Nc2ccc(S(=O)(=O)O)c3cc(S(=O)(=O)O)cc(S(=O)(=O)O)c23)cc1NC(=O)c1cccc(NC(=O)Nc2cccc(C(=O)Nc3cc(C(=O)Nc4ccc(S(=O)(=O)O)c5cc(S(=O)(=O)O)cc(S(=O)(=O)O)c45)ccc3C)c2)c1 [suramin, reference compound] was tested, and the “inhibition of VEGF-increased tube branching” value was “inhibited”.
